According to ChEMBL document CHEMBL1201862, “PubChem BioAssay data set” (2004):
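1) Cells in 96-well plates. 2) Compound, 48 h, 5 concentrations. 3) Linear interpolation between surrounding doses. 4) Unreached endpoint = highest concentration. At the GI50, growth is halved.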 Activity calls are given as the source filed them. Cut-off read from the data, not from the text of the source: active = GI50 up to about 1.1 µM and inactive = higher.

How the values were obtained:
Assay in all cases: growth of human tumour cells (NCI), 48 h
[1] = test system: NCI-H23
[2] = test system: OVCAR-8
[3] = test system: A498
[4] = test system: TK-10
[5] = test system: SW-620
[6] = test system: SK-MEL-28
[7] = test system: LOX IMVI
[8] = test system: IGROV-1
[9] = test system: SF-539
[10] = test system: M14
[11] = test system: K562
[12] = test system: U-251
[13] = test system: RPMI-8226
[14] = test system: A549
[15] = test system: SR

Measured: GI50

CCCCNC(=O)C1C(=O)N(CCCC)C(=O)/C1=N\N (configuration not stated)
inactive: [1] > 100 µM | [2] > 100 µM | [3] > 100 µM | [4] > 100 µM | [5] > 100 µM | [6] > 100 µM | [7] > 100 µM | [8] > 100 µM | [9] > 100 µM | [10] > 100 µM | [11] > 100 µM | [12] > 100 µM | [13] > 100 µM

CC12CCCCC1(C)C2Sc1ccccc1 (configuration not stated)
inactive: [1] 52.6 µM | [2] 42 µM | [3] > 50.4 µM | [4] > 100 µM | [5] 42.8 µM | [6] 40.5 µM | [7] 29.9 µM | [8] > 81.7 µM | [9] > 100 µM | [10] 88.5 µM | [14] 43.6 µM | [11] 13.5 µM | [12] 32.3 µM | [13] 18.4 µM

COc1ccc(NC(=O)C(=O)C2CNC(=O)NC2=O)c(OC)c1 (configuration not stated)
inactive: [1] > 100 µM | [2] > 100 µM | [4] > 100 µM | [5] > 100 µM | [6] > 100 µM | [7] > 100 µM | [8] > 100 µM | [9] > 100 µM | [10] > 100 µM | [14] > 100 µM | [11] > 100 µM | [12] > 100 µM | [13] > 100 µM | [15] > 100 µM

NC1=NN(c2ccccc2)C(=O)C1C(=O)C(=O)Nc1ccccc1 (configuration not stated)
inactive: [1] > 100 µM | [2] > 100 µM | [3] > 100 µM | [4] > 100 µM | [5] > 100 µM | [7] > 100 µM | [8] > 100 µM | [9] > 100 µM | [10] > 100 µM | [14] > 100 µM | [11] > 100 µM | [12] > 100 µM | [13] > 100 µM

C=CCCC1(C)CCCNC1=S (configuration not stated)
inactive: [1] > 100 µM | [2] > 100 µM | [3] > 100 µM | [4] > 100 µM | [5] > 100 µM | [6] > 100 µM | [7] > 100 µM | [8] > 100 µM | [9] > 100 µM | [10] > 100 µM | [14] > 100 µM | [11] > 100 µM | [12] > 100 µM | [13] > 100 µM | [15] > 100 µM

COc1ccc(CC#N)c(OCc2ccccc2)c1
inactive: [1] 77.8 µM | [2] > 100 µM | [3] 11.2 µM | [5] 31 µM | [6] 23.9 µM | [7] 43.8 µM | [8] 29.4 µM | [9] > 100 µM | [10] 35.6 µM | [14] 78.3 µM | [11] 58.6 µM | [13] 43.3 µM | [15] 33.4 µM

O=c1cc[nH]c2ccc3nn[nH]c3c12
inactive: [1] > 100 µM | [2] > 100 µM | [3] > 100 µM | [4] > 100 µM | [5] > 100 µM | [6] > 100 µM | [8] > 100 µM | [9] > 100 µM | [10] > 100 µM | [14] > 100 µM | [11] > 100 µM | [12] > 100 µM | [13] > 100 µM

CCN(CC)CCNC(=O)c1ccc([N+](=O)[O-])cc1OC
inactive: [1] > 100 µM | [2] > 100 µM | [3] > 100 µM | [4] > 100 µM | [5] > 100 µM | [6] > 100 µM | [7] > 100 µM | [8] > 100 µM | [9] > 100 µM | [10] > 100 µM | [14] > 100 µM | [11] > 100 µM | [12] > 100 µM | [15] > 100 µM

COc1c(OC(C)=O)ccc(/C=C2\N=C(C)OC2=O)c1[N+](=O)[O-]
inactive: [2] > 100 µM | [3] > 100 µM | [4] > 100 µM | [5] > 100 µM | [7] > 100 µM | [8] > 100 µM | [9] > 100 µM | [10] > 100 µM | [14] > 100 µM | [11] > 100 µM | [12] > 100 µM | [13] > 100 µM | [15] > 100 µM

CCN(C1=CC(=O)NC2CCCCN12)c1ccccc1 (configuration not stated)
inactive: [1] > 100 µM | [2] > 100 µM | [3] > 100 µM | [4] > 100 µM | [5] > 100 µM | [6] > 100 µM | [7] > 100 µM | [8] > 100 µM | [9] > 100 µM | [10] > 100 µM | [14] > 100 µM | [11] > 100 µM | [12] > 100 µM | [13] > 100 µM

O=C(c1ccco1)N(C(=S)N1CCN(c2ccccn2)CC1)c1ccccc1
inactive: [1] > 100 µM | [2] > 100 µM | [4] > 100 µM | [5] > 100 µM | [6] > 100 µM | [7] > 100 µM | [8] > 100 µM | [9] > 100 µM | [10] > 100 µM | [14] > 100 µM | [11] > 100 µM | [12] > 100 µM | [13] > 100 µM | [15] > 100 µM

ClC(Cl)[Si]12OCCN(CCO1)CCO2
inactive: [1] > 100 µM | [2] > 100 µM | [3] > 100 µM | [4] > 100 µM | [5] > 100 µM | [6] > 100 µM | [8] > 100 µM | [9] > 100 µM | [14] > 100 µM | [11] > 100 µM | [12] > 100 µM | [13] > 100 µM | [15] > 100 µM

CCC(C(=O)O)c1ccc(OCc2ccccc2)cc1 (configuration not stated)
inactive: [1] > 100 µM | [3] > 100 µM | [4] > 100 µM | [5] > 100 µM | [6] > 100 µM | [7] > 100 µM | [8] > 100 µM | [9] > 100 µM | [10] > 100 µM | [14] > 100 µM | [11] > 100 µM | [12] > 100 µM | [13] > 100 µM | [15] > 100 µM

Cc1ccc(C(=O)c2nnc(C(=O)c3ccc(C)cc3)nn2)cc1
inactive: [1] > 100 µM | [2] 34.9 µM | [4] 78.3 µM | [5] 20.8 µM | [6] 51.3 µM | [7] 17.6 µM | [8] 95.9 µM | [9] 38.9 µM | [10] 22.2 µM | [14] 73.5 µM | [11] 23.3 µM | [12] 40.7 µM | [13] 30.5 µM | [15] 5.45 µM

CC1=C(C(=O)Nc2c(C)cccc2C)C(c2ccccc2Cl)C(C(=O)Nc2c(C)cccc2C)=C(C)N1
inactive: [1] > 100 µM | [2] > 100 µM | [3] > 100 µM | [4] > 100 µM | [5] > 100 µM | [6] > 100 µM | [7] > 100 µM | [8] > 100 µM | [9] > 100 µM | [10] > 100 µM | [14] > 100 µM | [11] > 100 µM | [12] > 100 µM | [13] > 100 µM

Cc1ccccc1NC(=O)C1C(=O)N(c2ccccc2C)C(=O)/C1=N\NC(N)=O (configuration not stated)
inactive: [1] > 100 µM | [2] > 100 µM | [3] > 100 µM | [4] > 100 µM | [5] > 100 µM | [6] > 100 µM | [8] > 100 µM | [9] > 100 µM | [10] > 100 µM | [14] > 100 µM | [11] > 100 µM | [12] > 100 µM | [15] > 100 µM

CCOc1ccccc1NC(=O)C1=C(C)NC(C)=C(C(=O)Nc2ccccc2OCC)C1c1ccc([N+](=O)[O-])cc1
inactive: [1] 44 µM | [3] 78.9 µM | [5] > 100 µM | [6] > 100 µM | [8] 45.2 µM | [9] > 100 µM | [10] 89.5 µM | [14] > 100 µM | [12] > 100 µM | [13] 10 µM | [15] 47.6 µM

Cn1c(-c2ccccc2)cc(-c2cccs2)c1-c1cccs1
inactive: [1] 49.3 µM | [2] > 100 µM | [3] > 100 µM | [5] > 100 µM | [6] > 100 µM | [7] 52 µM | [8] > 100 µM | [9] > 100 µM | [14] > 100 µM | [11] 51.6 µM | [12] > 100 µM | [13] 73.3 µM

COc1ccc2[nH]c(=O)cc(C)c2c1[N+](=O)[O-]
inactive: [1] > 100 µM | [2] > 100 µM | [3] 54.8 µM | [4] > 100 µM | [5] > 100 µM | [6] > 100 µM | [7] > 100 µM | [8] > 100 µM | [9] > 100 µM | [10] > 100 µM | [14] > 100 µM | [11] > 100 µM | [12] > 100 µM | [13] > 100 µM

CCN(CC)CCCCC1CCN(CC(=O)N2c3cc(Cl)ccc3NC(=O)CC2C)CC1 (configuration not stated)
inactive: [1] > 100 µM | [3] > 100 µM | [5] > 100 µM | [6] > 100 µM | [7] > 100 µM | [8] > 100 µM | [10] > 100 µM | [14] > 100 µM | [11] 79.6 µM | [12] > 100 µM | [13] > 100 µM | [15] 74 µM
